These results are taken from patent US9175003B2, “Substituted azoanthracene derivatives and intermediates for preparation thereof” (TransTech Pharma, LLC, priority 2009, dated 2015).

The target of the test is human GLP-1 receptor (Homo sapiens (Human), UniProt P43220). To be noted: read-out: Mean EC50; cAMP, HTRF detection, 30 min at 37° C., HEK-293 cells expressing cloned human GLP-1 receptor.
Chain of human GLP-1 receptor (P43220 24-463): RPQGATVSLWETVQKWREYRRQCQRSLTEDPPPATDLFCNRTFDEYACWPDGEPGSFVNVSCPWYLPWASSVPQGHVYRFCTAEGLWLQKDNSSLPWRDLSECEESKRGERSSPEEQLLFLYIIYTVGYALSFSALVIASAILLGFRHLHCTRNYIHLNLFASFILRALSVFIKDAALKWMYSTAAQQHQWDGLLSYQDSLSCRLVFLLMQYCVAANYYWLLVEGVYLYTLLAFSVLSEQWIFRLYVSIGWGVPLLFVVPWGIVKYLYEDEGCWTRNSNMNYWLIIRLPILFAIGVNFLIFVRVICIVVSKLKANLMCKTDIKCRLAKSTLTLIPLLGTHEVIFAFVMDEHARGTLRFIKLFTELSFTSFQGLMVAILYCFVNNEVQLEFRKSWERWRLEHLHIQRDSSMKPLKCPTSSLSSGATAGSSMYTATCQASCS
Take `Cc1nc(N)sc1S(=O)(=O)N1Cc2cc3c(cc2C[C@H]1C(=O)N[C@@H](Cc1ccc(-c2ccc(C#N)cc2)cc1)C(=O)O)OC[C@@H](c1ccc(OCc2ccc(Cl)c(Cl)c2)cc1)O3` [Example 60, (S)-2-({(3R,8S)-7-(2-Amino-4-methyl-thiazole-5-sulfonyl)-3-[4-(3,4-dichloro-benzyloxy)-phenyl]-2,3,6,7,8,9-hexahydro-[1,4]dioxino[2,3-g]isoquinoline-8-carbonyl}-amino)-3-(4′-cyano-biphenyl-4-yl)-propionic acid]: the EC50 came out at 109 nM.

As to `CNc1nc(C)c(S(=O)(=O)N2Cc3cc4c(cc3C[C@H]2C(=O)N[C@@H](Cc2ccc(-c3ccc(C#N)cc3)cc2)C(=O)O)OC[C@@H](c2ccc(OCc3ccc(Cl)c(Cl)c3)cc2)O4)s1` [Example 61, (S)-3-(4′-Cyano-biphenyl-4-yl)-2-{[(3R,8S)-3-[4-(3,4-dichloro-benzyloxy)-phenyl]-7-(4-methyl-2-methylamino-thiazole-5-sulfonyl)-2,3,6,7,8,9-hexahydro-[1,4]dioxino[2,3-g]isoquinoline-8-carbonyl]-amino}-propionic acid], the EC50 came to 73 nM.

Turning to `CCNc1nc(C)c(S(=O)(=O)N2Cc3cc4c(cc3C[C@H]2C(=O)N[C@@H](Cc2ccc(-c3ccc(C#N)cc3)cc2)C(=O)O)OC[C@@H](c2ccc(OCc3ccc(Cl)c(Cl)c3)cc2)O4)s1` [Example 62, (S)-3-(4′-Cyano-biphenyl-4-yl)-2-{[(3R,8S)-3-[4-(3,4-dichloro-benzyloxy)-phenyl]-7-(2-ethylamino-4-methyl-thiazole-5-sulfonyl)-2,3,6,7,8,9-hexahydro-[1,4]dioxino[2,3-g]isoquinoline-8-carbonyl]-amino}-propionic acid], the EC50 was 328 nM.

`Cc1nc(NC(=O)[C@@H]2CCCN2)sc1S(=O)(=O)N1Cc2cc3c(cc2C[C@H]1C(=O)N[C@@H](Cc1ccc(-c2ccc(C#N)cc2)cc1)C(=O)O)OCC(c1ccc(OCc2ccc(Cl)c(Cl)c2)cc1)O3` (stereo partly drawn) [Example 71]: the EC50 worked out at 477 nM.

Turning to `CC[C@@H](c1ccccc1)N1Cc2cc3c(cc2C[C@H]1C(=O)N[C@@H](Cc1ccc(-c2ccc(C#N)cc2)cc1)C(=O)O)OC[C@H](c1ccc(OCc2ccc(Cl)c(Cl)c2)cc1)O3` [Example 72, (S)-3-(4′-Cyano-biphenyl-4-yl)-2-{[(3S,8S)-3-[4-(3,4-dichloro-benzyloxy)-phenyl]-7-((S)-1-phenyl-propyl)-2,3,6,7,8,9-hexahydro-[1,4]dioxino[2,3-g]isoquinoline-8-carbonyl]-amino}-propionic acid], the EC50 came to 480 nM.

Turning to `CC[C@@H](c1ccccc1)N1Cc2cc3c(cc2C[C@H]1C(=O)N[C@@H](Cc1ccc(-c2ccncc2)cc1)C(=O)O)OC[C@H](c1ccc(OCc2ccc(Cl)c(Cl)c2)cc1)O3` [Example 73, (S)-2-{[(3S,8S)-3-[4-(3,4-Dichloro-benzyloxy)-phenyl]-7-((S)-1-phenyl-propyl)-2,3,6,7,8,9-hexahydro-[1,4]dioxino[2,3-g]isoquinoline-8-carbonyl]-amino}-3-(4-pyridin-4-yl-phenyl)-propionic acid], the 50% effective concentration (EC50) came out at 76 nM.

With `Cc1nc(N)sc1S(=O)(=O)N1Cc2cc3c(cc2C[C@H]1C(=O)N[C@@H](Cc1ccc(-c2ccc(C#N)cc2)cc1)C(=O)O)OC[C@H](c1ccc(OCc2ccc(Cl)c(Cl)c2)cc1)O3` [Example 81, (S)-2-({(3S,8S)-7-(2-Amino-4-methyl-thiazole-5-sulfonyl)-3-[4-(3,4-dichloro-benzyloxy)-phenyl]-2,3,6,7,8,9-hexahydro-[1,4]dioxino[2,3-g]isoquinoline-8-carbonyl}-amino)-3-(4′-cyano-biphenyl-4-yl)-propionic acid], the EC50 was found to be 326 nM.

For the molecule `CNc1nc(C)c(S(=O)(=O)N2Cc3cc4c(cc3C[C@H]2C(=O)N[C@@H](Cc2ccc(-c3ccc(C#N)cc3)cc2)C(=O)O)OC[C@H](c2ccc(OCc3ccc(Cl)c(Cl)c3)cc2)O4)s1` [Example 85, (S)-3-(4′-Cyano-biphenyl-4-yl)-2-{[(3S,8S)-3-[4-(3,4-dichloro-benzyloxy)-phenyl]-7-(4-methyl-2-methylamino-thiazole-5-sulfonyl)-2,3,6,7,8,9-hexahydro-[1,4]dioxino[2,3-g]isoquinoline-8-carbonyl]-amino}-propionic acid], the concentration giving a half-maximal response (EC50) was 263 nM.

Regarding `CCNc1nc(C)c(S(=O)(=O)N2Cc3cc4c(cc3C[C@H]2C(=O)N[C@@H](Cc2ccc(-c3ccc(C#N)cc3)cc2)C(=O)O)OC[C@H](c2ccc(OCc3ccc(Cl)c(Cl)c3)cc2)O4)s1` [Example 86, (S)-3-(4′-Cyano-biphenyl-4-yl)-2-{[(3S,8S)-3-[4-(3,4-dichloro-benzyloxy)-phenyl]-7-(2-ethylamino-4-methyl-thiazole-5-sulfonyl)-2,3,6,7,8,9-hexahydro-[1,4]dioxino[2,3-g]isoquinoline-8-carbonyl]-amino}-propionic acid], the EC50 stood at 249 nM.

As to `COCCNc1nc(C)c(S(=O)(=O)N2Cc3cc4c(cc3C[C@H]2C(=O)N[C@@H](Cc2ccc(-c3ccc(C#N)cc3)cc2)C(=O)O)OC[C@H](c2ccc(OCc3ccc(Cl)c(Cl)c3)cc2)O4)s1` [Example 92, (S)-3-(4′-Cyano-biphenyl-4-yl)-2-({(3S,8S)-3-[4-(3,4-dichloro-benzyloxy)-phenyl]-7-[2-(2-methoxy-ethylamino)-4-methyl-thiazole-5-sulfonyl]-2,3,6,7,8,9-hexahydro-[1,4]dioxino[2,3-g]isoquinoline-8-carbonyl}-amino)-propionic acid], the EC50 is 156 nM.

For `COc1cc(C)ccc1S(=O)(=O)N1Cc2cc3c(cc2C[C@H]1C(=O)N[C@@H](Cc1ccc(-c2ccc(C#N)cc2)cc1)C(=O)O)OC[C@H](c1ccc(OCc2ccc(Cl)c(Cl)c2)cc1)O3` [Example 98, (S)-3-(4′-Cyano-biphenyl-4-yl)-2-{[(3S,8S)-3-[4-(3,4-dichloro-benzyloxy)-phenyl]-7-(2-methoxy-4-methyl-benzenesulfonyl)-2,3,6,7,8,9-hexahydro-[1,4]dioxino[2,3-g]isoquinoline-8-carbonyl]-amino}-propionic acid], the concentration for a half-maximal effect (EC50) was 377 nM.

In the case of `CCC(=O)Nc1nc(C)c(S(=O)(=O)N2Cc3cc4c(cc3C[C@H]2C(=O)N[C@@H](Cc2ccc(-c3ccc(C#N)cc3)cc2)C(=O)O)OCC(c2ccc(OCc3ccc(Cl)c(Cl)c3)cc2)O4)s1` (stereo partly drawn) [Example 132, (S)-3-(4′-Cyano-biphenyl-4-yl)-2-{[(S)-3-[4-(3,4-dichloro-benzyloxy)-phenyl]-7-(4-methyl-2-propionylamino-thiazole-5-sulfonyl)-2,3,6,7,8,9-hexahydro-[1,4]dioxino[2,3g]isoquinoline-8-carbonyl]-amino}-propionic acid], the EC50 is 214 nM.

With `Cc1nc(N)ccc1S(=O)(=O)N1Cc2cc3c(cc2C[C@H]1C(=O)N[C@@H](Cc1ccc(-c2ccc(C#N)cc2)cc1)C(=O)O)OC[C@H](c1ccc(OCc2ccc(Cl)c(Cl)c2)cc1)O3` [Example 141, (S)-2-({(3S,8S)-7-(6-Amino-2-methyl-pyridine-3-sulfonyl)-3-[4-(3,4-dichloro-benzyloxy)-phenyl]-2,3,6,7,8,9-hexahydro-[1,4]dioxino[2,3-g]isoquinoline-8-carbonyl}-amino)-3-(4′-cyano-biphenyl-4-yl)-propionic acid], the half-maximal effective concentration (EC50) worked out at 315 nM.

As for `Cc1nc(NC(C)C)ccc1S(=O)(=O)N1Cc2cc3c(cc2C[C@H]1C(=O)N[C@@H](Cc1ccc(-c2ccc(C#N)cc2)cc1)C(=O)O)OC[C@H](c1ccc(OCc2ccc(Cl)c(Cl)c2)cc1)O3` [Example 142, (S)-3-(4′-Cyano-biphenyl-4-yl)-2-{[(3S,8S)-3-[4-(3,4-dichloro-benzyloxy)-phenyl]-7-(6-isopropylamino-2-methyl-pyridine-3-sulfonyl)-2,3,6,7,8,9-hexahydro-[1,4]dioxino[2,3-g]isoquinoline-8-carbonyl]-amino}-propionic acid], the EC50 was determined as 263 nM.

Regarding `Cc1nc(NCC2CC2)ccc1S(=O)(=O)N1Cc2cc3c(cc2C[C@H]1C(=O)N[C@@H](Cc1ccc(-c2ccc(C#N)cc2)cc1)C(=O)O)OC[C@H](c1ccc(OCc2ccc(Cl)c(Cl)c2)cc1)O3` [Example 144, (S)-3-(4′-Cyano-biphenyl-4-yl)-2-({(3S,8S)-7-[6-(cyclopropylmethyl-amino)-2-methyl-pyridine-3-sulfonyl]-3-[4-(3,4-dichloro-benzyloxy)-phenyl]-2,3,6,7,8,9-hexahydro-[1,4]dioxino[2,3-g]isoquinoline-8-carbonyl}-amino)-propionic acid], the EC50 came out at 245 nM.

Regarding `CC[C@@H](c1ccccc1)N1Cc2cc3c(cc2C[C@H]1C(=O)N[C@@H](Cc1ccc(-c2ccnc(C)c2C)cc1)C(=O)O)OC[C@H](c1ccc(OCc2cccc(Cl)c2)cc1)O3` [Example 147, (S)-2-{[(3S,8S)-3-[4-(3-Chloro-benzyloxy)-phenyl]-7-((S)-1-phenyl-propyl)-2,3,6,7,8,9-hexahydro-[1,4]dioxino[2,3-g]isoquinoline-8-carbonyl]-amino}-3-[4-(2,3-dimethyl-pyridin-4-yl)-phenyl]-propionic acid], the EC50 is 5 nM.

Take `CC[C@@H](c1ccccc1)N1Cc2cc3c(cc2C[C@H]1C(=O)N[C@@H](Cc1ccc(-c2ccnc(C)c2C)cc1)C(=O)O)OC[C@H](c1ccc(OCc2ccc(Cl)cc2)cc1)O3` [Example 148, (S)-2-{[(3S,8S)-3-[4-(4-Chloro-benzyloxy)-phenyl]-7-((S)-1-phenyl-propyl)-2,3,6,7,8,9-hexahydro-[1,4]dioxino[2,3-g]isoquinoline-8-carbonyl]-amino}-3-[4-(2,3-dimethyl-pyridin-4-yl)-phenyl]-propionic acid]: the EC50 came out at 13 nM.

As for `CC[C@@H](c1ccccc1)N1Cc2cc3c(cc2C[C@H]1C(=O)N[C@@H](Cc1ccc(-c2ccnc(C)c2C)cc1)C(=O)O)OC[C@H](c1ccc(OCc2ccccc2)cc1)O3` [Example 149, (S)-2-{[(3S,8S)-3-(4-Benzyloxy-phenyl)-7-((S)-1-phenyl-propyl)-2,3,6,7,8,9-hexahydro-[1,4]dioxino[2,3-g]isoquinoline-8-carbonyl]-amino}-3-[4-(2,3-dimethyl-pyridin-4-yl)-phenyl]-propionic acid], the EC50 was 26 nM.
